# Test results: paper PMC8318231, “Rate-of-Kill (RoK) assays to triage large compound sets for Chagas disease drug discovery: Application to GSK Chagas Box” (PLoS Neglected Tropical Diseases, 2021)
# Key:
# [1] = tested on: T. cruzi Tulahuen trypomastigotes; assay: T. cruzi trypomastigote assay (Cell Titer-Glo viability, ATP luminescence); format: cell-based, Trypanosoma cruzi; details: for Trypomastigotes pIC50 48 hours: 48 hours incubation; for Trypomastigotes pIC50 48 hours / Trypomastigotes pIC50 72 hours: pIC50 = -log10 IC50 in molar units; for Trypomastigotes pIC50 72 hours: 72 hours incubation; for 72 pIC50 (trypomastigotes, raw data of Fig 1D): 72 hours, plotted values, censored values given without sign; for 48 pIC50 / 72 pIC50: trypomastigote assay; for 48 pIC50: 48 h; for 72 pIC50: 72 h
# Method in brief: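 Compounds were tested in dose response or once at a final 5 μM against 5 × 10^4 trypomastigotes per well (DMEM, 2% FBS), collected on days 5–8 from LLC-MK2 infected cultures. ATP luminescence via CellTiter-Glo reports live parasites; DMSO defines 0% and cell-free wells 100% effect.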
# TcCYP51 = details: formerly reported; cited from earlier work
# [2] = tested on: T. cruzi intracellular amastigotes in H9c2 cells; assay: Rate-of-Kill (RoK) high-content imaging assay, amastigotes per cell (AM/CELL) and curve descriptors; format: cell-based, Trypanosoma cruzi; parameters: key to ME_24h / ME_48h / ME_72h: % reduction in parasite burden (cidal response); t50pct_MCC50 / t50pct_Cmax: unit not given here; details: for ME_24h: 24h; for ME_48h: 48h; for ME_72h: 72h; for t50%_Cmax / tlag_Cmax / t50pct_Cmax: at Cmax; for ME_24h (%): maximum effect at 24 h; for ME_24h (%) / ME_48h (%) / ME_72h (%): RoK assay; for ME_48h (%): maximum effect at 48 h; for ME_72h (%): maximum effect at 72 h; for ME 24h (maximum effect at 24 hours, intracellular amastigotes): maximum percentage of parasite burden reduction reached by any concentration
# Experimental: For this high-content intracellular imaging assay, H9c2 cells were seeded in 225 cm^2 T- FLASK in DMEM with 10% FBS for 4 h to allow attachment. T. cruzi trypomastigotes, collected at days 5 to 8 after infection from LLC-MK2 parasite infected cultures, were allowed to swim out for 4 h at 37°C from a centrifuged pellet (1,600 x g / 10 min). Trypomastigotes were then collected and counted in a CASY Cell Counter using the 60 μm capillary. Trypomastigotes, in supplemented DMEM, were added to H9c2 cultures in a multiplicity of infection (MOI) of 8 and incubated for 18 h. Cells were washed once with PBS before incubation of the infected H9c2 monolayer with trypsin (Life-Technologies) to detach cells from the flask. Cells were counted in a CASY Cell Counter, using the 150 μm capillary, and their density set at 5 x 10^4 cells/mL in supplemented DMEM. Infected H9c2 were dispensed into 384-well plates at 50 μL per well using a Multidrop Combi dispenser. Control wells used to determine a 100% parasitic growth (full 6th column of each plate) were left untreated, whereas not infected cells were added in the control wells used as 0% parasite growth (or 100% parasite growth inhibition; full 18th column of each plate). The four plates corresponding to each RoK assay were predispensed for the same mother plate. […] Cultures were then fixed and stained with 50 μL per well of a PBS solution containing 4% formaldehyde and 2 μM DRAQ5 DNA dye (BioStatus, UK). Then plates were read in a PerkinElmer Opera Phenix using a 20x objective, 3 fields per well. DRAQ5 signal was detected using 640 nm excitation laser and a 690/50 nm emission detection filter. Automated image analysis was performed with a script developed on Acapella High Content Imaging and Analysis Software (PerkinElmer). Two outputs were provided for each sample well: (1) number of host cells nuclei to determine drug-related cytotoxicity (aka H9c2) and (2) number of amastigotes per cell as infection level measurement (aka AM/CELL). Each output is plotted as a time course for each compound at every concentration. This assay was adapted from Alonso-Padilla et al. and Peña et al..
# To identify and classify the different compounds, the number of amastigotes per cell (AM/CELL) raw data obtained in rate of kill assay are normalised using the average of C1 (infected cells) at time 4 hours as 0% effect and the average of C2 (non-infected cells) for each time as 100% effect, according to the following Eq 1: %CIDALRESPONSE=100*[Avg_C14h-RawData]/[Avg_C14h-Avg_C2] (1)
# • ME (Maximum Effect) is the maximum percentage of parasite burden reduction reached by any compound concentration. Compounds that decrease the initial parasite load will show a positive value of ME, whereas compounds that allow the progression of infection will render a negative ME value. […] It is calculated for the MCC50 (t50%_MCC50) and for the maximum concentration (t50%_Cmax). […] The value of this parameter is not either interpolated or extrapolated, and it refers to the first experimental time-course point at which a 50% of effect is reached or exceeded. • tlag defines the time elapsed for one particular concentration to reduce parasite burden between two consecutive points at any moment of the time course. It is calculated for the MCC50 (tlag_MCC50) and for the maximum concentration (tlag_Cmax). The value of this parameter is not either interpolated or extrapolated, and it refers to the first experimental time-course point of a positive slope in the normalised plot (i.e. %Cidal_Response). • Cmin_Tox (Minimal CytoToxic Concentration) is the lowest compound concentration that is reducing the number of host mammalian cells below 50% of initial cell density. Cytotoxic compounds may mislead a bona fide antiparasitic action.
compound,measurement,setting,value
COc1ccc(S(=O)(=O)NCc2ccc(-c3ccc(CN(C)CCO)cc3)cc2)cc1.O=C(O)C(F)(F)F [TCMDC-143549],Trypomastigotes pIC50 48 hours,[1],4.6
same,Trypomastigotes pIC50 72 hours,[1],< 4.3
same,CYP51 pIC50,TcCYP51,4.8
same,ME_24h,[2]; figure 5,31.0393
same,ME_48h,[2]; figure 5,40.4277
same,ME_72h,[2]; figure 5,76.5332
same,MCC50,[2]; RoK curve descriptor,16.7 µM
same,MCCE,[2]; RoK curve descriptor,5.6 µM
same,AM/CELL NORM,"[2]; Time 4, sheet figure 4 A",-7.714
same,AM/CELL NORM,"[2]; Time 24, sheet figure 4 A",31.0393
same,AM/CELL NORM,"[2]; Time 48, sheet figure 4 A",40.4277
same,AM/CELL NORM,"[2]; Time 72, sheet figure 4 A",76.5332
same,t50%_Cmax,[2],72.0 h
same,tlag_Cmax,[2],4.0 h
same,t50pct_Cmax,[2]; figure 5,72
same,tlag_Cmax,[2]; figure 5,4
same,t50%_MCC50,[2]; at MCC50,72.0 h
same,tlag_MCC50,[2]; at MCC50,24.0 h
same,t50pct_MCC50,"[2]; at MCC50, figure 5",72
same,tlag_MCC50,"[2]; at MCC50, figure 5",24
same,MCCE,[2]; figure 5,5.556
same,MCC50,"[2]; figure 5, in µM",16.6667
same,ME_24h (%),[2],31.0%
same,ME_48h (%),[2],40.4%
same,ME_72h (%),[2],76.5%
same,"ME 24h (maximum effect at 24 hours, intracellular amastigotes)",[2],31.0393%
Cc1sc(C)c(C(F)(F)F)c1CNCCCNc1cc(=O)c2ccccc2[nH]1.Cl [TCMDC-140766],Trypomastigotes pIC50 48 hours,[1],4.9
same,Trypomastigotes pIC50 72 hours,[1],5.3
same,CYP51 pIC50,TcCYP51,4.7
same,ME (maximum effect) in RoK assay (in words),[2],high ME at 24 hours and 72 hours
same,tlag (in words),[2],short tlag times
same,ME_24h,[2]; figure 5,54.6006
same,ME_48h,[2]; figure 5,64.1651
same,ME_72h,[2]; figure 5,71.5778
same,MCC50,[2]; RoK curve descriptor,5.6 µM
same,MCCE,[2]; RoK curve descriptor,0.6 µM
same,AM/CELL NORM,"[2]; Time 4, figure 4 A",7.643
same,AM/CELL NORM,"[2]; Time 24, figure 4 A",58.2122
same,AM/CELL NORM,"[2]; Time 48, figure 4 A",67.454
same,AM/CELL NORM,"[2]; Time 72, figure 4 A",69.5653
same,t50%_Cmax,[2],24.0 h
same,tlag_Cmax,[2],4.0 h
same,t50pct_Cmax,[2]; figure 5,24
same,tlag_Cmax,[2]; figure 5,4
same,t50%_MCC50,[2]; at MCC50,72.0 h
same,tlag_MCC50,[2]; at MCC50,4.0 h
same,t50pct_MCC50,"[2]; at MCC50, figure 5",72
same,tlag_MCC50,"[2]; at MCC50, figure 5",4
same,MCCE,[2]; figure 5,0.6173
same,MCC50,"[2]; figure 5, in µM",5.556
same,ME_24h (%),[2],54.6%
same,ME_48h (%),[2],64.2%
same,ME_72h (%),[2],71.6%
same,"ME 24h (maximum effect at 24 hours, intracellular amastigotes)",[2],58.2122%
O=C(NCCc1ccccn1)C(c1cn[nH]c1)N1CCN(c2ccc(Cl)c(Cl)c2)CC1 (stereo not drawn) [TCMDC-143411],Trypomastigotes pIC50 48 hours,[1],< 4.3
same,Trypomastigotes pIC50 72 hours,[1],< 4.3
same,"72 pIC50 (trypomastigotes, raw data of Fig 1D)",[1],< 4.3
same,48 pIC50,[1]; figure 1A,< 4.3
same,72 pIC50,[1]; figure 1A,< 4.3
same,72 pIC50,[1]; figure 1B,< 4.3
same,CYP51 pIC50,TcCYP51,6.9
same,ME_24h,[2]; figure 5,-24.7459
same,ME_48h,[2]; figure 5,74.9666
same,ME_72h,[2]; figure 5,99.2836
same,MCC50,[2]; RoK curve descriptor,16.7 µM
same,MCCE,[2]; RoK curve descriptor,0.2 µM
same,AM/CELL NORM,"[2]; Time 4, sheet figure 4 A",6.745
same,AM/CELL NORM,"[2]; Time 24, sheet figure 4 A",-24.7459
same,AM/CELL NORM,"[2]; Time 48, sheet figure 4 A",74.9666
same,AM/CELL NORM,"[2]; Time 72, sheet figure 4 A",99.2836
same,t50%_Cmax,[2],48.0 h
same,tlag_Cmax,[2],24.0 h
same,t50pct_Cmax,[2]; figure 5,48
same,tlag_Cmax,[2]; figure 5,24
same,t50%_MCC50,[2]; at MCC50,72.0 h
same,tlag_MCC50,[2]; at MCC50,24.0 h
same,t50pct_MCC50,"[2]; at MCC50, figure 5",72
same,tlag_MCC50,"[2]; at MCC50, figure 5",24
same,MCCE,[2]; figure 5,0.2058
same,MCC50,"[2]; figure 5, in µM",16.6667
same,ME_24h (%),[2],-24.8%
same,ME_48h (%),[2],75.0%
same,ME_72h (%),[2],99.3%
same,"ME 24h (maximum effect at 24 hours, intracellular amastigotes)",[2],-24.7459%
CCCN1CCN(Cc2ccc(S(=O)(=O)Nc3cccc(C)c3)cc2)CC1.O=C(O)C(F)(F)F.O=C(O)C(F)(F)F [TCMDC-143550],Trypomastigotes pIC50 48 hours,[1],< 4.3
same,Trypomastigotes pIC50 72 hours,[1],< 4.3
same,"72 pIC50 (trypomastigotes, raw data of Fig 1D)",[1],< 4.3
same,48 pIC50,[1]; figure 1A,< 4.3
same,72 pIC50,[1]; figure 1A,< 4.3
same,72 pIC50,[1]; figure 1B,< 4.3
same,CYP51 pIC50,TcCYP51,< 4
same,ME_24h,[2]; figure 5,-35.0895
same,ME_48h,[2]; figure 5,33.2327
same,ME_72h,[2]; figure 5,65.1227
same,MCC50,[2]; RoK curve descriptor,1.9 µM
same,MCCE,[2]; RoK curve descriptor,0.6 µM
same,AM/CELL NORM,"[2]; Time 4, sheet figure 4 A",-2.745
same,AM/CELL NORM,"[2]; Time 24, sheet figure 4 A",-35.0895
same,AM/CELL NORM,"[2]; Time 48, sheet figure 4 A",33.2327
same,AM/CELL NORM,"[2]; Time 72, sheet figure 4 A",54.4775
same,t50%_Cmax,[2],72.0 h
same,tlag_Cmax,[2],24.0 h
same,t50pct_Cmax,[2]; figure 5,72
same,tlag_Cmax,[2]; figure 5,24
same,t50%_MCC50,[2]; at MCC50,72.0 h
same,tlag_MCC50,[2]; at MCC50,24.0 h
same,t50pct_MCC50,"[2]; at MCC50, figure 5",72
same,tlag_MCC50,"[2]; at MCC50, figure 5",24
same,MCCE,[2]; figure 5,0.6173
same,MCC50,"[2]; figure 5, in µM",1.852
same,ME_24h (%),[2],-35.1%
same,ME_48h (%),[2],33.2%
same,ME_72h (%),[2],65.1%
same,"ME 24h (maximum effect at 24 hours, intracellular amastigotes)",[2],-35.0895%
